Test results as given in patent publication US11667602B2, “Compounds and their use” (AstraZeneca AB, priority 2020, dated 2023).
Converted amounts (≈) assume the structure as drawn.

How the values were obtained:
[1] = Human Plasma Protein Binding (Test B); format: in vitro ADME; settings: fraction unbound (fu)
Method in brief: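 Human plasma protein binding run per the published Wernevik et al. (2020) integrated DMPK panel protocol. Values are fraction unbound (fu, % free); repeat runs averaged arithmetically.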

[2] = Human Liver Microsomal Stability (Test C); format: in vitro ADME; settings: human, liver microsomes
Method in brief: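 Human liver microsome incubation per the Wernevik et al. integrated DMPK panel protocol. Intrinsic clearance reported as CLint in μl/min/mg protein, averaged arithmetically over repeat runs.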

[3] = Rat Hepatocyte Stability (Test E); format: in vitro ADME; settings: rat, hepatocytes, geometric mean if run multiple times
Method in brief: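 Run per the published AstraZeneca-type rat hepatocyte stability protocol (Wernevik et al. panel). Values are mean intrinsic clearance, Clint in μl/min/10^6 cells; geometric mean used for repeated runs.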

Solubility (Test F) = format: physicochemical; settings: arithmetic mean if run multiple times
Experimental: The assay was conducted according to the Solubility Assay described in pages 164-167 of Wernevik, J. et al., “A Fully Integrated Assay Panel for Early Drug Metabolism and Pharmacokinetics Profiling”, Assay and Drug Development Technologies, 2020, 18(4), 157-179. Data are reported in Table 36 as solubility ([…]. Where the assay was run multiple times for the same compound, the arithmetic mean is reported.

human RXFP1 = target: T1, human RXFP1 (Homo sapiens, UniProt Q9HBX9); assay: RXFP1 Hu cAMP (Test A); format: cell-based; parameters: expressed in transfected cells; host or cells: Jump-In T-REx CHO-K1 cells (ThermoFisher), induced with 10 ng/ml doxycycline for 24 h; settings: RXFP1 Hu cAMP; for EC50: read-out: Test A EC50
T1 sequence (Q9HBX9 1-757): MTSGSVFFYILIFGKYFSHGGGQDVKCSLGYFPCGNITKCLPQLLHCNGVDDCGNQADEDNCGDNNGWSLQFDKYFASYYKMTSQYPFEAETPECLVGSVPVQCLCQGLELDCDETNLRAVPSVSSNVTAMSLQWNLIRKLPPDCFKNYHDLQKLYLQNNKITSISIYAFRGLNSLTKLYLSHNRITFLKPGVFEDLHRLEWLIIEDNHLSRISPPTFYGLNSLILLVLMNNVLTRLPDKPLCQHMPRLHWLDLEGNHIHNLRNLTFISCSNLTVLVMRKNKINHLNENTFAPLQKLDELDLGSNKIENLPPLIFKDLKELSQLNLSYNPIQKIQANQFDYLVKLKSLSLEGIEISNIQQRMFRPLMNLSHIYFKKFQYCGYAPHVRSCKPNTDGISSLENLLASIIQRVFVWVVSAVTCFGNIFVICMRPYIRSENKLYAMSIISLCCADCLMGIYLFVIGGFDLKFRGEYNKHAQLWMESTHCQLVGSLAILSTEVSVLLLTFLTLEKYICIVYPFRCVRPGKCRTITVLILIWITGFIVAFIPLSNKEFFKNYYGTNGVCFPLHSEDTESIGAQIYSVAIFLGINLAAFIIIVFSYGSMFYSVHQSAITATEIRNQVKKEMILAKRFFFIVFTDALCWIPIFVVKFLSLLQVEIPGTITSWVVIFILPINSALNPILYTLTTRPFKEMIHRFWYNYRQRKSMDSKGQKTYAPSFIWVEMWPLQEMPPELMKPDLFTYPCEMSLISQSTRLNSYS
Method in brief: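 Doxycycline-induced (10 ng/ml, 24 h) CHO-K1 cells stably expressing human RXFP1; cAMP read by competitive HTRF after 2 h at room temperature, with 0.5 mM IBMX final.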

| SMILES | Test B Human Plasma Protein Binding (% free) [1] | microsomal CLint [2] | hepatocyte CLint [3] | solubility (Solubility (Test F)) | Test A Sinf (human RXFP1) | EC50 (human RXFP1) |
| --- | --- | --- | --- | --- | --- | --- |
| COc1cc(F)c(O[C@H]2CC[C@@H](C(=O)O)CC2)cc1C(=O)N[C@@H]1[C@H]2CC[C@H](C2)[C@@H]1C(=O)Nc1cc(F)cc(S(F)(F)(F)(F)F)c1 [Example 17, (1S,4s)-4-(2-Fluoro-5-(((1S,2R,3S,4R)-3-((3-fluoro-5-(pentafluoro-6-sulfaneyl)phenyl)carbamoyl)bicyclo[2.2.1]heptan-2-yl)carbamoyl)-4-methoxyphenoxy)cyclohexane-1-carboxylic acid] | <0.21 % free | 20 µL/min/mg | 11 µL/min/1e6 cells | 150 µM (≈ 100 µg/mL) | 110% | 48 nM |
| COc1cc(F)c(O[C@H]2CC[C@@H](C(=O)O)CC2)cc1C(=O)N[C@@H]1[C@H]2CC[C@H](C2)[C@@H]1C(=O)NC1CCCCC1 [Example 9, (1S,4s)-4-(5-(((1S,2R,3S,4R)-3-(Cyclohexylcarbamoyl)bicyclo[2.2.1]heptan-2-yl)carbamoyl)-2-fluoro-4-methoxyphenoxy)cyclohexane-1-carboxylic acid] | 11 % free | 9.2 µL/min/mg | 67 µL/min/1e6 cells | 27 µM (≈ 14.3 µg/mL) | 100% | > 7300 nM |
| COc1cc(F)c(-c2ccc(OC(C)(C)C(=O)O)cc2)cc1C(=O)N[C@@H]1[C@H]2CC[C@H](C2)[C@@H]1C(=O)Nc1cccc(S(=O)(=O)C(F)(F)F)c1 [Example 256, 2-((2′-fluoro-4′-methoxy-5′-(((1S,2R,3S,4R)-3-((3-((trifluoromethyl)sulfonyl)phenyl)carbamoyl)bicyclo[2.2.1]heptan-2-yl)carbamoyl)-[1,1′-biphenyl]-4-yl)oxy)-2-methylpropanoic acid] | 0.050 % free | 8.1 µL/min/mg | 12 µL/min/1e6 cells | < 7 µM | 99% | 250 nM |
| CCC(CC)CNC(=O)[C@H]1CCC[C@H]1NC(=O)c1cc(O[C@H]2CC[C@@](C)(C(=O)O)CC2)c(F)cc1OC [Example 59, (1S,4s)-4-(5-(((1R,2S)-2-((2-Ethylbutyl)carbamoyl)cyclopentyl)carbamoyl)-2-fluoro-4-methoxyphenoxy)-1-methylcyclohexane-1-carboxylic acid] | 2.4 % free | 22 µL/min/mg | 27 µL/min/1e6 cells | 960 µM (≈ 500 µg/mL) | 100% | 550 nM |
| COc1cc(F)c(O[C@H]2CC[C@@H](C(=O)O)CC2)cc1C(=O)N[C@@H]1[C@H]2CC[C@H](C2)[C@@H]1C(=O)Nc1cc(F)cc(C(F)(F)F)c1 [Example 29] | 0.72 % free | 22 µL/min/mg | 22 µL/min/1e6 cells | 130 µM (≈ 79.4 µg/mL) | 111% | 110 nM |
| COc1cc(C#N)c(O[C@H]2CC[C@@](C)(C(=O)O)CC2)cc1C(=O)N[C@@H]1[C@H]2CC[C@H](C2)[C@@H]1C(=O)NCC1(C#N)CCC1 [Example 93] | 24 % free | < 3 µL/min/mg | 16 µL/min/1e6 cells | 920 µM (≈ 518 µg/mL) | 103% | 370 nM |
| COc1cc(F)c(O[C@H]2CC[C@@H](C(=O)O)CC2)cc1C(=O)N[C@@H]1[C@H]2CC[C@H](C2)[C@@H]1C(=O)Nc1ccc(C#N)c(Br)c1 [Example 27, (1S,4s)-4-(5-(((1S,2R,3S,4R)-3-((3-Bromo-4-cyanophenyl)carbamoyl)bicyclo[2.2.1]heptan-2-yl)carbamoyl)-2-fluoro-4-methoxyphenoxy)cyclohexane-1-carboxylic acid] | 0.40 % free | 29 µL/min/mg | > 300 µL/min/1e6 cells | 990 µM (≈ 622 µg/mL) | 88% | 130 nM |
| COc1cc(F)c(-c2ccc(C(=O)O)cc2)cc1C(=O)N[C@@H]1[C@H]2CC[C@H](C2)[C@@H]1C(=O)Nc1ccc(S(F)(F)(F)(F)F)cc1 [Example 210, 2′-Fluoro-4′-methoxy-5′-(((1S,2R,3S,4R)-3-((4-(pentafluoro-λ^6-sulfaneyl)phenyl)carbamoyl)bicyclo[2.2.1]heptan-2-yl)carbamoyl)-[1,1′-biphenyl]-4-carboxylic acid] | 0.049 % free | < 3 µL/min/mg | 10 µL/min/1e6 cells | 67 µM (≈ 42.1 µg/mL) | 50% | > 3600 nM |
| COc1cc(F)c(-c2ccc(CCC(=O)O)cc2)cc1C(=O)N[C@H]1[C@@H](C(=O)Nc2cccc(S(=O)(=O)C(F)(F)F)c2)[C@@H]2C=C[C@H]1C2 (racemic) [Example 283] | <0.29 % free | 12 µL/min/mg | 15 µL/min/1e6 cells | 220 µM (≈ 145 µg/mL) | 87% | 220 nM |
| COc1cc(F)c(O[C@H]2CC[C@@H](C(=O)O)CC2)cc1C(=O)N[C@@H]1[C@H]2CC[C@H](C2)[C@@H]1C(=O)Nc1cccc(C(C)C)c1 [Example 196, (1S,4s)-4-(2-Fluoro-5-(((1S,2R,3S,4R)-3-((3-isopropylphenyl)carbamoyl)bicyclo[2.2.1]heptan-2-yl)carbamoyl)-4-methoxyphenoxy)cyclohexane-1-carboxylic acid] | 1.7 % free | 40 µL/min/mg | 79 µL/min/1e6 cells | 290 µM (≈ 164 µg/mL) | 103% | 220 nM |

Other lines, results leading:

| Test B Human Plasma Protein Binding (% free) [1] | microsomal CLint [2] | hepatocyte CLint [3] | solubility (Solubility (Test F)) | Test A Sinf (human RXFP1) | EC50 (human RXFP1) | SMILES |
| --- | --- | --- | --- | --- | --- | --- |
| 2.3 % free | 17 µL/min/mg | 93 µL/min/1e6 cells | 630 µM (≈ 355 µg/mL) | 97% | 470 nM | COc1cc(F)c(O[C@H]2CC[C@@H](C(=O)O)CC2)cc1C(=O)N[C@@H]1[C@H]2CC[C@H](C2)[C@@H]1C(=O)Nc1ccc(C)c(C#N)c1 [Example 19] |
| 0.50 % free | 23 µL/min/mg | 13 µL/min/1e6 cells | 50 µM (≈ 32.5 µg/mL) | 99% | 420 nM | COc1cc(F)c(O[C@H]2CC[C@@H](C(=O)O)CC2)cc1C(=O)N[C@@H]1[C@H]2CC[C@H](C2)[C@@H]1C(=O)Nc1ccc(S(F)(F)(F)(F)F)cc1 [Example 183] |
| 3.1 % free | 24 µL/min/mg | 10 µL/min/1e6 cells | 520 µM (≈ 309 µg/mL) | 115% | 6300 nM | COc1cc(F)c(O[C@H]2CC[C@@H](C(=O)O)CC2)cc1C(=O)N[C@@H]1[C@H]2CC[C@H](C2)[C@@H]1C(=O)Nc1ccc(C(F)(F)F)cn1 [Example 13, (1S,4s)-4-(2-Fluoro-4-methoxy-5-(((1S,2R,3S,4R)-3-((5-(trifluoromethyl)pyridin-2-yl)carbamoyl)bicyclo[2.2.1]heptan-2-yl)carbamoyl)phenoxy)cyclohexane-1-carboxylic acid] |
| 0.10 % free | 6.6 µL/min/mg | 22 µL/min/1e6 cells | 10 µM (≈ 6.33 µg/mL) | 98% | 240 nM | COc1cc(F)c(-c2cccc(C(=O)O)c2)cc1C(=O)N[C@H]1[C@@H](C(=O)Nc2cccc(S(=O)(=O)C(F)(F)F)c2)[C@@H]2C=C[C@H]1C2 (racemic) [Example 225, rac-2′-Fluoro-4′-methoxy-5′-(((1R,2R,3S,4S)-3-((3-((trifluoromethyl)sulfonyl)phenyl)carbamoyl)bicyclo[2.2.1]hept-5-en-2-yl)carbamoyl)-[1,1′-biphenyl]-3-carboxylic acid] |
| 4 % free | 160 µL/min/mg | 19 µL/min/1e6 cells | 340 µM (≈ 197 µg/mL) | 112% | 15 nM | COc1cc(C#N)c(O[C@H]2CC[C@@](C)(C(=O)O)CC2)cc1C(=O)N[C@@H]1[C@H]2CC[C@H](C2)[C@@H]1C(=O)NCC1C(C)(C)C1(C)C [Example 84] |
